Experimental data taken from article PMC12177781, “Chalcogen Derivatives for the Treatment of African Trypanosomiasis: Biological Evaluation of Thio- and Seleno-Semicarbazones and Their Azole Derivatives” (ACS Omega, 2025).
Several values for one entry are separate records, joined by “and”; a condition that tells them apart may be missing. Equal values may be shown once. Read-outs that look alike come from different tables or passages of the source.

Key:
[1] = DPPH radical scavenging (antioxidant) assay; settings: after 2 h, mean ± SEM
HepG2 cells = test: HepG2 cytotoxicity, CellTiter-Glo, 48 h; settings: for inhibition at 10 µM: Homo sapiens, HepG2, read-out: HepG2 inhibition (%); for HepG2 inhibition (%): growth inhibition at 10 µM, ± SD
[2] = HepG2 cytotoxicity, CellTiter-Glo, 48 h; settings: human, HepG2 cells
HEK293 cells = test: HEK293 cytotoxicity, CellTiter-Glo, 48 h; settings: for inhibition at 10 µM: Homo sapiens, HEK293, read-out: HEK293 inhibition (%); for HEK293 inhibition (%): growth inhibition at 10 µM, ± SD
[3] = HEK293 cytotoxicity, CellTiter-Glo, 48 h; settings: human, HEK293 cells
[4] = tested on: T. brucei brucei Lister 427; test: T. b. brucei Lister 427 bloodstream-form growth inhibition, SYBR Green viability assay, 72 h; format: cell-based, Trypanosoma brucei brucei
[5] = molecular target: T. brucei cathepsin L-like protease (TbrCATL) (Trypanosoma brucei rhodesiense, UniProt Q95PM0); test: TbrCATL inhibition assay, Z-FR-AMC substrate; format: biochemical; settings: for SI TbrCATL: IC50 hCatL/IC50 TbrCATL; for IC50: mean ± SD, two experiments in triplicate (n = 6)
T. brucei cathepsin L-like protease (TbrCATL), sequence (Q95PM0 1-450): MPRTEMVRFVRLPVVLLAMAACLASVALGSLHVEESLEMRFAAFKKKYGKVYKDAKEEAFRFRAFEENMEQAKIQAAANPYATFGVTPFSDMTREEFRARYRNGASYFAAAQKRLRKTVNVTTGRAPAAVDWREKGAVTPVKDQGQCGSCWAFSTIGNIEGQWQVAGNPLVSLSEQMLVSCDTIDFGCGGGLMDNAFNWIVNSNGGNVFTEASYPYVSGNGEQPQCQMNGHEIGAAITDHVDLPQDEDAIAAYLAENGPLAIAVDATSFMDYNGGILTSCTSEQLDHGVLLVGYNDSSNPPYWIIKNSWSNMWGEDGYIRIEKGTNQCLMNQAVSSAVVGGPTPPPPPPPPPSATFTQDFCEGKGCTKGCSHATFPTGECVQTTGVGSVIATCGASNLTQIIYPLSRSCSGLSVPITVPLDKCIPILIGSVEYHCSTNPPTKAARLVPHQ
Procedure: (§1) All experiments were performed in a 384-well black microplate, using a Synergy HTX (Biotek) plate reader at 25 °C with absorption/emission wavelengths of 360/460 nm. Assays were performed in triplicate wells and DMSO was used as a vehicle control. Enzyme activity was measured and normalized to DMSO controls, and the inhibitor E-64 (10 μM) was used as a positive control for all assays. Experiments were performed in triplicate, with at least two independent assays (n = 6 data points). IC50 values were determined through nonlinear regression. The data obtained were analyzed using GraphPad Prism 9.0 (GraphPad Software, La Jolla, California, US).
The screening assay was performed using 0.5 nM of TbrCATL diluted in 0.1 M sodium acetate, 1 mM dithiothreitol (DTT), and 0.01% Triton X-100, pH 5.5. TbrCATL was expressed and purified as described. Enzyme the compound (10 μM), were incubated for 10 min at room temperature. Then the substrate, Z-Phe-Arg-amidomethylcoumarin (Z-FR-AMC; Sigma-Aldrich, C9521), was added (30 μL diluted in the same assay buffer) to yield a final concentration of 2.5 μM and the assay allowed to proceed for 10 min. […] For those compounds inhibiting enzyme activity by >85%, DR assays were performed over 15 2-fold serial dilutions starting at 0.5 or 20 μM.

[6] = molecular target: T1, human cathepsin L (hCatL) (Homo sapiens, UniProt P07711); test: hCatL inhibition assay, Z-FR-AMC substrate; format: biochemical; settings: mean ± SD, two experiments in triplicate (n = 6)
T1 construct: purchased R&D Systems 952-CY
T1 sequence (P07711 114-333): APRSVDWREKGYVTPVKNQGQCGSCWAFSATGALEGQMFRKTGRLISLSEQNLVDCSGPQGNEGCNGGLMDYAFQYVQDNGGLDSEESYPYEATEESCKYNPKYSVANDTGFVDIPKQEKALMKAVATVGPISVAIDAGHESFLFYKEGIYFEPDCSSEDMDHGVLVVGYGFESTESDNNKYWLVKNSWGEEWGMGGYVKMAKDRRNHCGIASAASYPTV
Procedure: as §1
Recombinant hCatL was purchased from R&D Systems (952-CY) and activated according to the manufacturers protocol. This enzyme, hCatL, is used to test compounds’ selectivity because it is the human homologue of TbrCATL. The assay was modified from, using 25 pM of the enzyme diluted in 40 mM sodium acetate, 5 mM DTT, 100 mM NaCl, 1 mM EDTA and 0.01% Triton X-100, pH 5.5. Enzyme and compound (10 μM), were incubated for 30 min at room temperature. Then Z-FR-AMC was added (30 μL diluted in the same assay buffer) to yield a final concentration of 25 μM and the assay allowed to proceed for 10 min. DR assays were performed over 15 2-fold serial dilutions starting at 0.5 or 20 μM.

in vitro [7] = settings: human, CC50 HEK293 (μM)
in vitro [8] = settings: human, CC50 HepG2 (μM)
C2C12 cells = settings: read-out: Toxicity CC50 C2C12 cells; cited from earlier work
cruzain (Cz) = settings: cited from earlier work
[9] = pharmacokinetic study; ref previous work; cited from earlier work
T. cruzi CAI/72 = settings: cited from earlier work
[10] = Trypanosoma brucei, growth inhibition at 10 µM, ± SD
[11] = at 10 μM, read-out: TbrCATL inhibition (%)
[12] = growth inhibition at 10 µM, ± SD
[13] = read-out: TbrCATL inhibition (%), at 10 μM
[14] = Trypanosoma brucei, three independent experiments in duplicate (n = 6) ± SD, read-out: EC50 T. brucei
[15] = growth inhibition at 10 µM, ± SD, 10 µM

Structure (SMILES) | % inhibited DPPH ([1]; 0.015 mg/ml) [%] | % inhibited DPPH ([1]; 0.03 mg/ml) [%] | % inhibited DPPH ([1]; 0.06 mg/ml) [%] | inhibition at 10 µM (HepG2 cells) [%] | inhibition at 10 µM (HEK293 cells) [%] | inhibition at 10 µM [4, 10] [%] | SI TbrCATL [5] | TbrCATL inhibition (%) ([5]; at 10 μM) | inhibition at 10 µM [5, 13] [%] | IC50 [6] [nM] | T. brucei inhibition (%) [4, 15] [%] | also measured
O=C1O[C@H]([C@@H](O)CO)C(O)=C1O [ASC, ascorbic acid, reference compound] | 76.00 ± 3.52 | 80.33 ± 0.33 | 80.33 ± 0.67 |  |  |  |  |  |  |  |  | 
CC(C)C[C@H](NC(=O)[C@H](Cc1ccccc1)NC(=O)c1cnccn1)B(O)O [Bortezomib, reference compound] |  |  |  | 100 ± 1 | 100 ± 2 |  |  |  |  |  |  | CC50 at 48 h [2]: 15 ± 3 nM; CC50 at 48 h [3]: 15 ± 2 nM
N=C(N)c1ccc(OCCCCCOc2ccc(C(=N)N)cc2)cc1 [Pentamidine, reference compound] |  |  |  |  |  |  |  |  |  |  |  | inhibition at 10 µM ([4]; Trypanosoma brucei): 100 ± 2%; EC50 ([4]; Trypanosoma brucei, read-out: EC50 T. brucei (μM)): 0.014 ± 0.002 µM
C/C(=N\Nc1nc(C)cs1)c1ccc(C)cc1 [SC1] | 55.00 ± 1.53 | 54.33 ± 1.86 | 60.00 ± 4.16 | 4 ± 15 | 24 ± 7 | 30 ± 6 |  |  |  |  |  | inhibition at 10 µM [5, 11]: 32.9%
COc1ccc(C(C)=NNc2nc(C)cs2)cc1.Cl [SC2] |  |  |  |  |  |  |  |  |  |  |  | HepG2 inhibition (%) (HepG2 cells): 6 ± 3%; T. brucei inhibition (%) [4, 12]: 27 ± 5%; HEK293 inhibition (%) (HEK293 cells): 33 ± 8%
C/C(=N\Nc1nc(C)cs1)c1ccc(Br)cc1 [SC3] | 68.00 ± 3.06 | 69.33 ± 2.33 | 67.00 ± 2.31 | 46 ± 7 | 64 ± 2 | 38 ± 9 |  |  |  |  |  | inhibition at 10 µM [5, 11]: 54%
C/C(=N\Nc1nc(C)cs1)c1cccc([N+](=O)[O-])c1 [SC5] | 66.33 ± 1.86 | 68.67 ± 2.03 | 66.67 ± 1.86 | 17 ± 2 | 30 ± 3 | 40 ± 8 | 49 | 87.70 | > 85 | 4070 ± 383 |  | IC50 ([5]; read-out: IC50 TbrCATL): 82.6 ± 4.05 nM
C/C(=N\Nc1nc(C)cs1)C12CC3CC(CC(C3)C1)C2.Cl [SC11] |  |  |  |  |  |  |  |  |  |  |  | HepG2 inhibition (%) (HepG2 cells): 0 ± 13%; T. brucei inhibition (%) [4, 12]: 19 ± 8%; HEK293 inhibition (%) (HEK293 cells): 39 ± 3%
C/C(=N\NC(N)=S)c1ccc(C)cc1 [SO1] |  |  | 45.00 ± 8.33 | 50 ± 4 | 30 ± 3 | 44 ± 7 |  |  |  |  |  | inhibition at 10 µM [5, 11]: 80%
C/C(=N\NC(N)=S)c1ccc(Br)cc1 [SO3] |  |  | 29.33 ± 24.77 | 65 ± 4 | 76 ± 2 | 28 ± 4 | 19 | 95.54 | > 85 | 136 ± 19.9 |  | IC50 ([5]; read-out: IC50 TbrCATL): 7.33 ± 0.27 nM
C/C(=N\NC(N)=S)c1cccc([N+](=O)[O-])c1 [SO5] |  |  | 23.33 ± 19.46 | 39 ± 9 | 14 ± 9 | 31 ± 5 | 4 | 100.00 | > 85 | 20.7 ± 4.36 |  | IC50 ([5]; read-out: IC50 TbrCATL): 5.83 ± 0.35 nM
C/C(=N\Nc1nc(C)c[se]1)c1ccc(C)cc1 [SeC1] | 71.67 ± 2.85 | 71.67 ± 2.40 | 72.33 ± 2.33 | 65 ± 9 | 77 ± 2 | 72 ± 6 |  | 51.07 |  |  | > 70 | CC50 (in vitro [7]): 12 ± 4.94 µM; CC50 (in vitro [8]): 11 ± 0.88 µM; EC50 [4, 14]: 9.8 ± 0.63 µM; TbrCATL inhibition (%) ([5]; at 10 μM, listed as Se C1, 10 µM): ≤ 85%
C/C(=N\Nc1nc(C)c[se]1)c1ccc(Br)cc1 [SeC3] | 35.00 ± 18.82 | 71.00 ± 3.06 | 75.67 ± 1.45 | 80 ± 2 | 88 ± 3 |  | 4 | 101.02 | > 85 | 793 ± 66.5 | 99 ± 2 | CC50 (in vitro [7]): 5.9 ± 1.22 µM; CC50 (in vitro [8]): 4.68 ± 0.14 µM; EC50 [4, 14]: 6.04 ± 0.72 µM; T. brucei inhibition (%) ([4]; growth inhibition at 10 µM, ± SD, listed as Se C3, 10 µM): > 70%; CC50 (C2C12 cells): > 10000 nM; IC50 ([5]; IC50 TbrCATL (nM)): 201.7 ± 0.92 nM
C/C(=N\Nc1nc(C)c[se]1)c1cccc([N+](=O)[O-])c1 [SeC5] | 77.33 ± 0.88 | 78.00 ± 1.73 | 78.33 ± 1.76 | 77 ± 6 | 81 ± 7 |  | 25 | 98.02 | > 85 | 175 ± 43.7 | 100 ± 2 | CC50 (in vitro [7]): 9 ± 1.36 µM; IC50 (cruzain (Cz)): 8.99 ± 5.56 nM; CC50 (in vitro [8]): 11.3 ± 0.97 µM; EC50 [4, 14]: 10.5 ± 1.02 µM; T. brucei inhibition (%) ([4]; growth inhibition at 10 µM, ± SD, listed as Se C5, 10 µM): > 70%; oral bioavailability [9]: favorable oral bioavailability; EC50 (T. cruzi CAI/72): 310 ± 180 nM; CC50 (C2C12 cells): > 10000 nM
C/C(=N\Nc1nc(C)c[se]1)C12CC3CC(CC(C3)C1)C2 [SeC11] |  |  |  |  |  |  |  |  |  |  |  | HepG2 inhibition (%) (HepG2 cells): 66 ± 2%; T. brucei inhibition (%) [4, 12]: 37 ± 0%; HEK293 inhibition (%) (HEK293 cells): 64 ± 10%
C/C(=N\NC(N)=[Se])c1ccc(C)cc1 [SeO1] | 45.67 ± 9.56 | 78.00 ± 1.16 | 77.33 ± 1.76 | 80 ± 1 | 100 ± 1 |  | 5 | 97.08 | > 85 | 84.5 ± 17 | 100 ± 1 | CC50 (in vitro [7]): 4.27 ± 0.22 µM; CC50 (in vitro [8]): 4.17 ± 0.6 µM; EC50 [4, 14]: 0.98 ± 0.12 µM; T. brucei inhibition (%) ([4]; growth inhibition at 10 µM, ± SD, listed as Se O1, 10 µM): > 70%; IC50 ([5]; IC50 TbrCATL (nM)): 17.9 ± 3.62 nM
C/C(=N\NC(N)=[Se])c1cccc([N+](=O)[O-])c1 [SeO5] | 22.00 ± 17.67 | 63.33 ± 6.89 | 75.67 ± 1.67 | 85 | 100 |  | 2 | 101.47 | > 85 | 0.51 ± 0.08 | 100 ± 1 | CC50 (in vitro [7]): 2.29 ± 0.26 µM; IC50 (cruzain (Cz)): 0.91 ± 0.18 nM; CC50 (in vitro [8]): 5.54 ± 1.47 µM; EC50 [4, 14]: 5.83 ± 0.72 µM; T. brucei inhibition (%) ([4]; growth inhibition at 10 µM, ± SD, listed as Se O5, 10 µM): > 70%; CC50 (C2C12 cells): > 10000 nM; IC50 ([5]; IC50 TbrCATL (nM)): 0.51 nM and 0.3 nM
C/C(=N\NC(N)=[Se])C12CC3CC(CC(C3)C1)C2 [SeO11] |  |  |  |  |  |  |  |  |  |  | 100 ± 1 | HepG2 inhibition (%) (HepG2 cells): 66 ± 5%; CC50 (HepG2 cells; read-out: CC50 HepG2, three independent experiments in duplicate): 6010 ± 690 nM; T. brucei inhibition (%) ([4]; growth inhibition at 10 µM, ± SD, listed as Se O11, 10 µM): > 70%; EC50 ([4]; three independent experiments in duplicate (n = 6) ± SD, read-out: EC50 T. brucei): 5.16 ± 1.06 µM; HEK293 inhibition (%) (HEK293 cells): 100 ± 4%; CC50 (HEK293 cells; read-out: CC50 HEK293, three independent experiments in duplicate): 10500 ± 360 nM
Cc1c(C)c2c(c(C)c1O)CCC(C)(C(=O)O)O2 (stereo not shown) [TRO, Trolox, reference compound] | 79.33 ± 1.33 | 79.33 ± 0.882 | 79.67 ± 0.67 |  |  |  |  |  |  |  |  | 
